This passage reports Minimum inhibitory concentration results from patent US11225505B2, “Antimicrobial polymyxin derivative compounds” (MONASH UNIVERSITY, priority 2015, dated 2022).

What all share (assay type): cell-based
Test [1] has as its system Acinetobacter baumannii FADDI-AB030. The test can be described thus: microbe, parasite or virus in culture. As to conditions: FADDI-AB030. The method in brief: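 Broth microdilution MIC in cation-adjusted Mueller-Hinton broth per CLSI M100-S24; lipopeptides tested as TFA salts. FADDI-AB030 is a multidrug-resistant clinical isolate. Polymyxin B sulphate served as control.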

Test [2] concerns Klebsiella pneumoniae Kp BM1. The note with it: Kp BM1. The gist of the method:
(§1)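 Gram-negative bacteria susceptible to polymyxin were exposed to lipopeptide trifluoroacetates in CAMHB, and growth inhibition was read as the MIC by the CLSI microdilution protocol.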

The test system of test [3] is Pseudomonas aeruginosa FADDI-PA038. The note with it: FADDI-PA038. The method in brief: (§2)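 The read-out is the MIC, obtained by CLSI broth microdilution (M100-S24) in cation-adjusted Mueller-Hinton broth. The compounds were lipopeptide TFA salts, and polymyxin B sulphate served as control.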
Test [4] concerns Pseudomonas aeruginosa FADDI-PA01. The note with it: FADDI-. The method in brief: as §2
In test [5] the test system is Klebsiella pneumoniae FADDI-KP032. The note with it: FADDI-KP032. The gist of the method:
as §2

The test system of test [6] is Pseudomonas aeruginosa FADDI-PA022. As to conditions: FADDI-PA022. The gist of the method:
as §2

In test [7] the test system is Acinetobacter baumannii FADDI-AB034. The note with it: FADDI-AB034. The method in brief: as §2
The test system of test [8] is Enterobacter cloacae FADDI-EC003. The note with it: FADDI-EC003. The method in brief: as §2
Test [9] relates to Pseudomonas aeruginosa ATCC 27853. As to conditions: ATCC 27853. The gist of the method: as §2
Test [10] has as its system Enterobacter cloacae FADDI-EC006. The note with it: FADDI-EC006. The method in brief: as §2
Test [11] has as its system Acinetobacter baumannii ATCC 17978. As to conditions: ATCC 17978. The method in brief:
as §2

Test [12] relates to Enterobacter cloacae FADDI-EC001. As to conditions: FADDI-EC001. The gist of the method:
as §1

Test [13] concerns Klebsiella pneumoniae FADDI-KP022. The note with it: FADDI-KP022. The gist of the method:
as §2

In brackets after ≈: the same amount, converted by molar mass. Where a SMILES comes first, the peptide text is derived from it. Bridges are numbered along the chain shown (N, C = ends). [ ]: non-standard residue; d: D form. The star is where a group is joined. X35 = O=C(c1cc(-c2ccc(Cl)cc2)on1)*; X57 = O=C(c1nc2cc(Cl)ccc2[nH]1)*; dNle = CCCC[C@@H](N)C(=O)O; X25 = O=C(c1ccnc(Cl)c1)*; X29 = O=C(c1cc(Cl)ccn1)*; X59 = Cn1c(Br)ccc1C(=O)*; Dab = NCC[C@H](N)C(=O)O; X40 = Cc1cncc(C(=O)*)c1; Abu = CC[C@H](N)C(=O)O; Dap = NC[C@H](N)C(=O)O; X53 = O=C(c1ccncc1Cl)*

Take `CC[C@@H]1NC(=O)[C@@H](CC(C)C)NC(=O)[C@H](CCN)NC(=O)[C@@H](NC(=O)[C@H](CN)NC(=O)[C@@H](NC(=O)[C@H](CCN)NC(=O)c2cncc(C)c2)[C@@H](C)O)CCNC(=O)[C@H]([C@@H](C)O)NC(=O)[C@H](CCN)NC(=O)[C@H](CCN)NC1=O` [Compound 30] (X40-[Dab]T[Dap][Dab][Dab][dL][Abu][Dab][Dab]T; lactam 4-C): the Minimum inhibitory concentration in [1] is given as 4 mg/L (≈ 3.62 µM); in test [2] it was 1 mg/L (≈ 0.904 µM); in test [3] it was 1 mg/L (≈ 0.904 µM); in test [4], 0.5 mg/L (≈ 0.452 µM); in test [5], 2 mg/L (≈ 1.81 µM); in [6] it was 0.5 mg/L (≈ 0.452 µM). In addition, the Minimum inhibitory concentration is 4 mg/L (≈ 3.62 µM) in test [7]; 0.5 mg/L (≈ 0.452 µM) in test [8]; 0.5 mg/L (≈ 0.452 µM) in [9]; 2 mg/L (≈ 1.81 µM) in [10]; 8 mg/L (≈ 7.23 µM) in test [11]; 0.5 mg/L (≈ 0.452 µM) in test [12]. For the same compound, the Minimum inhibitory concentration in test [13] is reported as 0.25 mg/L (≈ 0.226 µM).

For the compound `CC[C@@H]1NC(=O)[C@@H](CC(C)C)NC(=O)[C@H](CCN)NC(=O)[C@@H](NC(=O)[C@H](CN)NC(=O)[C@@H](NC(=O)[C@H](CCN)NC(=O)c2nc3cc(Cl)ccc3[nH]2)[C@@H](C)O)CCNC(=O)[C@H]([C@@H](C)O)NC(=O)[C@H](CCN)NC(=O)[C@H](CCN)NC1=O` [Compound 71] (X57-[Dab]T[Dap][Dab][Dab][dL][Abu][Dab][Dab]T; lactam 4-C), the Minimum inhibitory concentration in [1] is recorded as 0.25 mg/L (≈ 0.214 µM); in test [2], under 0.125 mg/L; in test [3], 2 mg/L (≈ 1.72 µM); in test [4], 0.25 mg/L (≈ 0.214 µM); in test [5] it was under 0.125 mg/L; in [6], 0.5 mg/L (≈ 0.429 µM). Besides, the Minimum inhibitory concentration in [7] is 0.5 mg/L (≈ 0.429 µM); in test [8], under 0.125 mg/L; in test [9], 0.5 mg/L (≈ 0.429 µM); in test [10], under 0.125 mg/L; in [11], 0.5 mg/L (≈ 0.429 µM); in test [12], 0.25 mg/L (≈ 0.214 µM). Moreover, the Minimum inhibitory concentration in [13] is listed as under 0.125 mg/L.

For `CC[C@@H]1NC(=O)[C@@H](CC(C)C)NC(=O)[C@H](CCN)NC(=O)[C@@H](NC(=O)[C@H](CN)NC(=O)[C@@H](NC(=O)[C@H](CCN)NC(=O)c2ccnc(Cl)c2)[C@@H](C)O)CCNC(=O)[C@H]([C@@H](C)O)NC(=O)[C@H](CCN)NC(=O)[C@H](CCN)NC1=O` [Compound 24] (X25-[Dab]T[Dap][Dab][Dab][dL][Abu][Dab][Dab]T; lactam 4-C), the Minimum inhibitory concentration in test [1] turned out to be 1 mg/L (≈ 0.888 µM); in [2], 0.25 mg/L (≈ 0.222 µM); in test [3], 1 mg/L (≈ 0.888 µM); in [4], 0.25 mg/L (≈ 0.222 µM); in test [5], 0.5 mg/L (≈ 0.444 µM); in test [6], 0.25 mg/L (≈ 0.222 µM). In addition, the Minimum inhibitory concentration in test [7] was 1 mg/L (≈ 0.888 µM); in test [8] it was 0.25 mg/L (≈ 0.222 µM); in [9], 0.25 mg/L (≈ 0.222 µM); in [10] it was 4 mg/L (≈ 3.55 µM); in test [11] it was 2 mg/L (≈ 1.78 µM); in [12], 0.25 mg/L (≈ 0.222 µM). For the same compound, the Minimum inhibitory concentration in test [13] was under 0.125 mg/L.

Turning to `CC[C@@H]1NC(=O)[C@@H](CC(C)C)NC(=O)[C@H](CCN)NC(=O)[C@@H](NC(=O)[C@H](CN)NC(=O)[C@@H](NC(=O)[C@H](CCN)NC(=O)c2cc(-c3ccc(Cl)cc3)on2)[C@@H](C)O)CCNC(=O)[C@H]([C@@H](C)O)NC(=O)[C@H](CCN)NC(=O)[C@H](CCN)NC1=O` [Compound 94] (X35-[Dab]T[Dap][Dab][Dab][dL][Abu][Dab][Dab]T; lactam 4-C), the Minimum inhibitory concentration is 0.25 mg/L (≈ 0.21 µM) in test [1]; 0.5 mg/L (≈ 0.419 µM) in test [2]; 1 mg/L (≈ 0.838 µM) in test [3]; 0.5 mg/L (≈ 0.419 µM) in [4]; under 0.125 mg/L in [5]; 0.5 mg/L (≈ 0.419 µM) in [6]. The Minimum inhibitory concentration is recorded as 0.5 mg/L (≈ 0.419 µM) in [7]; 0.25 mg/L (≈ 0.21 µM) in test [8]; 0.5 mg/L (≈ 0.419 µM) in test [9]; under 0.125 mg/L in test [10]; 1 mg/L (≈ 0.838 µM) in test [11]; 0.25 mg/L (≈ 0.21 µM) in test [12]. The Minimum inhibitory concentration in test [13] is listed as under 0.125 mg/L.

For `CC[C@@H]1NC(=O)[C@@H](CC(C)C)NC(=O)[C@H](CCN)NC(=O)[C@@H](NC(=O)[C@H](CN)NC(=O)[C@@H](NC(=O)[C@H](CCN)NC(=O)c2ccc(Br)n2C)[C@@H](C)O)CCNC(=O)[C@H]([C@@H](C)O)NC(=O)[C@H](CCN)NC(=O)[C@H](CCN)NC1=O` [Compound 93] (X59-[Dab]T[Dap][Dab][Dab][dL][Abu][Dab][Dab]T; lactam 4-C; N-terminus assumed), the Minimum inhibitory concentration in test [1] amounted to 0.5 mg/L (≈ 0.426 µM); in [2], 0.25 mg/L (≈ 0.213 µM); in test [3], 1 mg/L (≈ 0.852 µM); in test [4], 0.5 mg/L (≈ 0.426 µM); in [5], 0.5 mg/L (≈ 0.426 µM); in [6], 0.5 mg/L (≈ 0.426 µM). Further, the Minimum inhibitory concentration is 1 mg/L (≈ 0.852 µM) in test [7]; 0.5 mg/L (≈ 0.426 µM) in test [8]; 0.5 mg/L (≈ 0.426 µM) in test [9]; 0.25 mg/L (≈ 0.213 µM) in test [10]; 2 mg/L (≈ 1.7 µM) in test [11]; under 0.125 mg/L in test [12]. The compound further showed a Minimum inhibitory concentration in test [13] of under 0.125 mg/L.

In the case of `CCCC[C@H]1NC(=O)[C@H](CCN)NC(=O)[C@@H](NC(=O)[C@H](CN)NC(=O)[C@@H](NC(=O)[C@H](CCN)NC(=O)c2cc(Cl)ccn2)[C@@H](C)O)CCNC(=O)[C@H]([C@@H](C)O)NC(=O)[C@H](CCN)NC(=O)[C@H](CCN)NC(=O)[C@H](CC)NC1=O` [Compound 95] (X29-[Dab]T[Dap][Dab][Dab][dNle][Abu][Dab][Dab]T; lactam 4-C), the Minimum inhibitory concentration in [1] is 0.25 mg/L (≈ 0.222 µM); in test [2], 0.5 mg/L (≈ 0.444 µM); in test [3] it was 1 mg/L (≈ 0.888 µM); in test [4] it was under 0.125 mg/L; in test [5], under 0.125 mg/L; in test [6], 0.25 mg/L (≈ 0.222 µM). Also, the Minimum inhibitory concentration is 0.25 mg/L (≈ 0.222 µM) in test [7]; 0.25 mg/L (≈ 0.222 µM) in test [8]; 0.25 mg/L (≈ 0.222 µM) in [9]; under 0.125 mg/L in test [10]; 0.25 mg/L (≈ 0.222 µM) in test [11]; under 0.125 mg/L in [12]. This compound yielded a Minimum inhibitory concentration in test [13] of 0.25 mg/L (≈ 0.222 µM).

As for `CC[C@@H]1NC(=O)[C@@H](CC(C)C)NC(=O)[C@H](CCN)NC(=O)[C@@H](NC(=O)[C@H](CN)NC(=O)[C@@H](NC(=O)[C@H](CCN)NC(=O)c2ccncc2Cl)[C@@H](C)O)CCNC(=O)[C@H]([C@@H](C)O)NC(=O)[C@H](CCN)NC(=O)[C@H](CCN)NC1=O` [Compound 34] (X53-[Dab]T[Dap][Dab][Dab][dL][Abu][Dab][Dab]T; lactam 4-C), the Minimum inhibitory concentration in test [1] came out at 8 mg/L (≈ 7.1 µM); in test [2] it was 1 mg/L (≈ 0.888 µM); in [3], 1 mg/L (≈ 0.888 µM); in [4] it was 0.25 mg/L (≈ 0.222 µM); in [5], 1 mg/L (≈ 0.888 µM); in test [6] it was 0.25 mg/L (≈ 0.222 µM). The Minimum inhibitory concentration in [7] came out at 8 mg/L (≈ 7.1 µM); in test [8], 0.5 mg/L (≈ 0.444 µM); in [9] it was 0.25 mg/L (≈ 0.222 µM); in [10], 2 mg/L (≈ 1.78 µM); in test [11] it was 8 mg/L (≈ 7.1 µM); in [12], 0.25 mg/L (≈ 0.222 µM). For the same compound, the Minimum inhibitory concentration in test [13] is under 0.125 mg/L.
